Test results from US20230263822A1, “MODULATION OF FACTOR 11 EXPRESSION” (Ionis Pharmaceuticals, Inc., priority 2008, published 2023).

Assay: Hematology assays in cynomolgus monkeys (Example 45)
Type: in vivo
Details: for MCH / MCHC / MCV / RBC count / WBC count / hematocrit / hemoglobin: escalating dose regimen
In short: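 Cynomolgus monkeys (2 male, 3 female per group) dosed subcutaneously with antisense oligonucleotide or PBS, escalating 5, 10, then 25 mg/kg two to three times weekly over 12 weeks; one chronic group held at 10 mg/kg from week 4. Blood sampled weekly; necropsy on day 85.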

ISIS 417002: MOE gapmer, nucleobases 1275 to 1318 of SEQ ID NO: 1 (Table 8) (antisense GGTGCACAGTTTCTGGCAGG; MOE gapmer, wing and gap sizes not given here)
MCH (Day 64): 22 pg
MCH (Day 71): 23 pg
MCH (Day 78): 23 pg
MCH (Day 85): 23 pg
basophils (day 8): 0.3%
eosinophils (day 8): 0.2%
lymphocytes (day 8): 50%
monocytes (day 8): 3.3%
neutrophils (day 8): 46%
platelet count (day 8): 435000 µL⁻¹
reticulocytes (day 8): 1.1%
MCH (day 8): 23 pg
MCHC (day 8): 29 g/dL
MCV (day 8): 79 fL
RBC count (day 8): 5.6e+06 µL⁻¹
WBC count (day 8): 10000 µL⁻¹
hematocrit (day 8): 44%
hemoglobin (day 8): 12.8 g/dL
basophils (day 15): 0.2%
eosinophils (day 15): 0.1%
lymphocytes (day 15): 40%
monocytes (day 15): 2.3%
neutrophils (day 15): 57%
platelet count (day 15): 410000 µL⁻¹
reticulocytes (day 15): 1.1%
MCH (day 15): 23 pg
MCHC (day 15): 31 g/dL
MCV (day 15): 76 fL
RBC count (day 15): 5.4e+06 µL⁻¹
WBC count (day 15): 10000 µL⁻¹
hematocrit (day 15): 40%
hemoglobin (day 15): 12.3 g/dL
basophils (day 22): 0.2%
eosinophils (day 22): 0.3%
lymphocytes (day 22): 41%
monocytes (day 22): 3.1%
neutrophils (day 22): 55%
platelet count (day 22): 377000 µL⁻¹
reticulocytes (day 22): 1.2%
MCH (day 22): 23 pg
MCHC (day 22): 29 g/dL
MCV (day 22): 79 fL
RBC count (day 22): 5.2e+06 µL⁻¹
WBC count (day 22): 10000 µL⁻¹
hematocrit (day 22): 41%
hemoglobin (day 22): 12.1 g/dL
basophils (day 29): 0.2%
eosinophils (day 29): 0.3%
lymphocytes (day 29): 50%
monocytes (day 29): 3.5%
neutrophils (day 29): 45%
platelet count (day 29): 410000 µL⁻¹
reticulocytes (day 29): 1.6%
MCH (day 29): 23 pg
MCHC (day 29): 29 g/dL
MCV (day 29): 81 fL
RBC count (day 29): 5.2e+06 µL⁻¹
WBC count (day 29): 10000 µL⁻¹
hematocrit (day 29): 42%
hemoglobin (day 29): 12.0 g/dL
basophils (day 36): 0.2%
eosinophils (day 36): 0.2%
lymphocytes (day 36): 35%
monocytes (day 36): 2.6%
neutrophils (day 36): 61%
platelet count (day 36): 415000 µL⁻¹
reticulocytes (day 36): 1.3%
MCH (day 36): 23 pg
MCHC (day 36): 30 g/dL
MCV (day 36): 78 fL
RBC count (day 36): 5.4e+06 µL⁻¹
WBC count (day 36): 11000 µL⁻¹
hematocrit (day 36): 42%
hemoglobin (day 36): 12.5 g/dL
basophils (day 43): 0.3%
eosinophils (day 43): 0.2%
lymphocytes (day 43): 39%
monocytes (day 43): 2.8%
neutrophils (day 43): 57%
platelet count (day 43): 393000 µL⁻¹
reticulocytes (day 43): 1.1%
MCH (day 43): 23 pg
MCHC (day 43): 30 g/dL
MCV (day 43): 77 fL
RBC count (day 43): 5.4e+06 µL⁻¹
WBC count (day 43): 10000 µL⁻¹
hematocrit (day 43): 41%
hemoglobin (day 43): 12.3 g/dL
basophils (day 50): 0.3%
eosinophils (day 50): 0.1%
lymphocytes (day 50): 34%
monocytes (day 50): 3.1%
neutrophils (day 50): 61%
platelet count (day 50): 389000 µL⁻¹
reticulocytes (day 50): 1.6%
MCH (day 50): 23 pg
MCHC (day 50): 29 g/dL
MCV (day 50): 80 fL
RBC count (day 50): 5.4e+06 µL⁻¹
WBC count (day 50): 13000 µL⁻¹
hematocrit (day 50): 43%
hemoglobin (day 50): 12.3 g/dL
basophils (day 57): 0.3%
eosinophils (day 57): 0.2%
lymphocytes (day 57): 40%
monocytes (day 57): 3.6%
neutrophils (day 57): 54%
platelet count (day 57): 403000 µL⁻¹
reticulocytes (day 57): 4.6%
MCH (day 57): 23 pg
MCHC (day 57): 29 g/dL
MCV (day 57): 80 fL
RBC count (day 57): 4.9e+06 µL⁻¹
WBC count (day 57): 12000 µL⁻¹
hematocrit (day 57): 38%
hemoglobin (day 57): 11.3 g/dL
basophils (day 64): 0.2%
eosinophils (day 64): 0.2%
lymphocytes (day 64): 39%
monocytes (day 64): 4.0%
neutrophils (day 64): 55%
platelet count (day 64): 436000 µL⁻¹
reticulocytes (day 64): 1.3%
MCHC (day 64): 30 g/dL
MCV (day 64): 76 fL
RBC count (day 64): 5.4e+06 µL⁻¹
WBC count (day 64): 11000 µL⁻¹
hematocrit (day 64): 41%
hemoglobin (day 64): 12.2 g/dL
basophils (day 71): 0.3%
eosinophils (day 71): 0.3%
lymphocytes (day 71): 59%
monocytes (day 71): 4.7%
neutrophils (day 71): 34%
platelet count (day 71): 490000 µL⁻¹
reticulocytes (day 71): 1.3%
MCHC (day 71): 29 g/dL
MCV (day 71): 78 fL
RBC count (day 71): 5.5e+06 µL⁻¹
WBC count (day 71): 12000 µL⁻¹
hematocrit (day 71): 43%
hemoglobin (day 71): 12.5 g/dL
basophils (day 78): 0.3%
eosinophils (day 78): 0.1%
lymphocytes (day 78): 41%
monocytes (day 78): 4.7%
neutrophils (day 78): 51%
platelet count (day 78): 432000 µL⁻¹
reticulocytes (day 78): 1.3%
MCHC (day 78): 31 g/dL
MCV (day 78): 75 fL
RBC count (day 78): 5.4e+06 µL⁻¹
WBC count (day 78): 9000 µL⁻¹
hematocrit (day 78): 40%
hemoglobin (day 78): 12.4 g/dL
basophils (day 85): 0.3%
eosinophils (day 85): 0.2%
lymphocytes (day 85): 56%
monocytes (day 85): 5.3%
neutrophils (day 85): 36%
platelet count (day 85): 418000 µL⁻¹
reticulocytes (day 85): 1.4%
MCHC (day 85): 30 g/dL
MCV (day 85): 76 fL
RBC count (day 85): 5.4e+06 µL⁻¹
WBC count (day 85): 10000 µL⁻¹
hematocrit (day 85): 41%
hemoglobin (day 85): 12.2 g/dL
basophils (day −5): 0.3%
eosinophils (day −5): 0.3%
lymphocytes (day −5): 53%
monocytes (day −5): 3.2%
neutrophils (day −5): 43%
platelet count (day −5): 466000 µL⁻¹
reticulocytes (day −5): 0.8%
MCH (day −5): 24 pg
MCHC (day −5): 30 g/dL
MCV (day −5): 80 fL
RBC count (day −5): 5.6e+06 µL⁻¹
WBC count (day −5): 14000 µL⁻¹
hematocrit (day −5): 45%
hemoglobin (day −5): 13.2 g/dL
basophils (day −14): 0.3%
eosinophils (day −14): 0.3%
lymphocytes (day −14): 53%
monocytes (day −14): 3.0%
neutrophils (day −14): 43%
platelet count (day −14): 442000 µL⁻¹
reticulocytes (day −14): 0.9%
MCH (day −14): 24 pg
MCHC (day −14): 30 g/dL
MCV (day −14): 79 fL
RBC count (day −14): 5.6e+06 µL⁻¹
WBC count (day −14): 13000 µL⁻¹
hematocrit (day −14): 44%
hemoglobin (day −14): 13.0 g/dL
